Measured values as given in ChEMBL document CHEMBL4017445, “Development and crystallographic evaluation of histone H3 peptide with N-terminal serine substitution as a potent inhibitor of lysine-specific demethylase 1” (Bioorg Med Chem, 2017).

Molecular target: Lysine-specific histone demethylase 1A (Homo sapiens, UniProt O60341)
Assay: Inhibition of human LSD1 (172 to 833 residues) assessed as reduction in H2O2 production using H3K4me2 (1 to 20 residues) peptide as substrate preincubated for 10 mins followed by substrate addition measured after 30 mins by peroxidase coupled enzyme assay

| Ki [µM] | SMILES |
| --- | --- |
| 170 | CSCC[C@H](NC(=O)[C@@H](NC(=O)[C@H](CCCNC(=N)N)NC(=O)CO)[C@@H](C)O)C(=O)N[C@@H](CCC(N)=O)C(=O)N[C@H](C(=O)N[C@@H](C)C(=O)N[C@@H](CCCNC(=N)N)C(=O)N[C@@H](CCCCN)C(=O)N[C@@H](CO)C(=O)N[C@H](C(=O)NCC(=O)NCC(=O)N[C@@H](CCCCN)C(=O)N[C@@H](C)C(=O)N1CCC[C@H]1C(=O)N[C@@H](CCCNC(=N)N)C(=O)N[C@@H](CCCCN)C(=O)N[C@@H](CCC(N)=O)C(=O)N[C@@H](CC(C)C)C(N)=O)[C@@H](C)O)[C@@H](C)O |
| > 500 | CSCC[C@H](NC(=O)[C@@H](NC(=O)[C@@H](N)CCCNC(=N)N)[C@@H](C)O)C(=O)N[C@@H](CCC(N)=O)C(=O)N[C@H](C(=O)N[C@@H](C)C(=O)N[C@@H](CCCNC(=N)N)C(=O)N[C@@H](CCCCN)C(=O)N[C@@H](CO)C(=O)N[C@H](C(=O)NCC(=O)NCC(=O)N[C@@H](CCCCN)C(=O)N[C@@H](C)C(=O)N1CCC[C@H]1C(=O)N[C@@H](CCCNC(=N)N)C(=O)N[C@@H](CCCCN)C(=O)N[C@@H](CCC(N)=O)C(=O)N[C@@H](CC(C)C)C(N)=O)[C@@H](C)O)[C@@H](C)O |
